Results taken from ChEMBL document CHEMBL3046607, “Synthesis and Herbicidal Activity of New 1-Alkyl-3-aryloxypyrazole-4-carboxamide Derivatives” (J Pestic Sci, 2004).
The source made the active and inactive calls. No cut-off for these calls is given here.

What was measured:
Elatine triandra [1] = assay: Post-emergence herbicidal activity against Elatine triandra assessed as bleaching of stem/leaf parts; assay type: functional, organism-based; note: test concentration or dose not given here
Ammannia multiflora [2] = assay: Post-emergence herbicidal activity against Ammannia multiflora assessed as bleaching of stem/leaf parts; assay type: functional, organism-based
Rotala indica [3] = assay: Post-emergence herbicidal activity against Rotala indica assessed as bleaching of stem/leaf parts; assay type: functional, organism-based
Lindernia procumbens [4] = assay: Post-emergence herbicidal activity against Lindernia procumbens assessed as bleaching of stem/leaf parts; assay type: functional, organism-based; note: test concentration or dose not given here
[5] = test system: Schoenoplectiella juncoides; assay: Post-emergence herbicidal activity against Schoenoplectiella juncoides assessed as bleaching of stem/leaf parts; assay type: functional, organism-based; note: test concentration or dose not given here
Oryza sativa = assay: Phytotoxicity against Oryza sativa cv. Koshihikari (rice) at 33 g a.i/ha measured after 14 days; assay type: organism-based; settings: in vivo, 336 h
Ammannia multiflora [6] = assay: Pre-emergence herbicidal activity against Ammannia multiflora at 33 g a.i/ha measured after 14 days; assay type: functional, organism-based
Elatine triandra [7] = assay: Pre-emergence herbicidal activity against Elatine triandra at 33 g a.i/ha measured after 14 days; assay type: functional, organism-based
Rotala indica [8] = assay: Pre-emergence herbicidal activity against Rotala indica at 33 g a.i/ha measured after 14 days; assay type: functional, organism-based
Lindernia procumbens [9] = assay: Pre-emergence herbicidal activity against Lindernia procumbens at 33 g a.i/ha measured after 14 days; assay type: functional, organism-based
[10] = test system: Schoenoplectiella juncoides; assay: Pre-emergence herbicidal activity against Schoenoplectiella juncoides at 33 g a.i/ha measured after 14 days; assay type: functional, organism-based
Pontederia vaginalis [11] = assay: Pre-emergence herbicidal activity against Monochoria vaginalis at 33 g a.i/ha measured after 14 days; assay type: functional, organism-based
Cyperus difformis [12] = assay: Pre-emergence herbicidal activity against Cyperus difformis at 33 g a.i/ha measured after 14 days; assay type: functional, organism-based
Echinochloa oryzicola [13] = assay: Pre-emergence herbicidal activity against Echinochloa oryzicola at 33 g a.i/ha measured after 14 days; assay type: functional, organism-based
Lindernia procumbens [14] = assay: Pre-emergence herbicidal activity against Lindernia procumbens assessed as bleaching of stem/leaf parts; assay type: functional, organism-based
Pontederia vaginalis [15] = assay: Pre-emergence herbicidal activity against Monochoria vaginalis assessed as bleaching of stem/leaf parts; assay type: functional, organism-based
[16] = test system: Schoenoplectiella juncoides; assay: Pre-emergence herbicidal activity against Schoenoplectiella juncoides assessed as bleaching of stem/leaf parts; assay type: functional, organism-based
Cyperus difformis [17] = assay: Pre-emergence herbicidal activity against Cyperus difformis assessed as bleaching of stem/leaf parts; assay type: functional, organism-based
Echinochloa oryzicola [18] = assay: Pre-emergence herbicidal activity against Echinochloa oryzicola assessed as bleaching of stem/leaf parts; assay type: functional, organism-based
Cyperus difformis [19] = assay: Post-emergence herbicidal activity against Cyperus difformis assessed as bleaching of stem/leaf parts; assay type: functional, organism-based; note: test concentration or dose not given here
Pontederia vaginalis [20] = assay: Post-emergence herbicidal activity against Monochoria vaginalis assessed as bleaching of stem/leaf parts; assay type: functional, organism-based
Echinochloa oryzicola [21] = assay: Post-emergence herbicidal activity against Echinochloa oryzicola assessed as bleaching of stem/leaf parts; assay type: functional, organism-based
Ammannia multiflora [22] = assay: Pre-emergence herbicidal activity against Ammannia multiflora assessed as bleaching of stem/leaf parts; assay type: functional, organism-based
Elatine triandra [23] = assay: Pre-emergence herbicidal activity against Elatine triandra assessed as bleaching of stem/leaf parts; assay type: functional, organism-based
Rotala indica [24] = assay: Pre-emergence herbicidal activity against Rotala indica assessed as bleaching of stem/leaf parts; assay type: functional, organism-based

| Structure (SMILES) | Activity (Elatine triandra [1]) | Activity (Ammannia multiflora [2]) | Activity (Rotala indica [3]) | Activity (Lindernia procumbens [4]) | Activity [5] | Activity (Oryza sativa) | Activity (Ammannia multiflora [6]) | Activity (Elatine triandra [7]) | Activity (Rotala indica [8]) | Activity (Lindernia procumbens [9]) | Activity [10] | Activity (Pontederia vaginalis [11]) | Activity (Cyperus difformis [12]) | Activity (Echinochloa oryzicola [13]) | Activity (Lindernia procumbens [14]) | Activity (Pontederia vaginalis [15]) | Activity [16] | Activity (Cyperus difformis [17]) | Activity (Echinochloa oryzicola [18]) | Activity (Cyperus difformis [19]) | further results |
| --- | --- | --- | --- | --- | --- | --- | --- | --- | --- | --- | --- | --- | --- | --- | --- | --- | --- | --- | --- | --- | --- |
| CCCCn1cc(C(=O)Nc2ccc(F)cc2F)c(Oc2cccc(C(F)(F)F)c2)n1 | Active | Active | Active | Active | Active | Non-toxic | inactive | inactive | inactive | inactive | inactive | inactive | inactive | inactive | Active | Active | Active | Active | Active | Active | Activity (Pontederia vaginalis [20]): Active; Activity (Echinochloa oryzicola [21]): Active; Activity (Ammannia multiflora [22]): Active; Activity (Elatine triandra [23]): Active; Activity (Rotala indica [24]): Active |
| CCCn1cc(C(=O)Nc2ccc(F)cc2F)c(Oc2cccc(C(F)(F)F)c2)n1 | Active | Active | Active | Active | Active | Non-toxic | inactive | inactive | inactive | inactive | inactive | inactive | inactive | inactive | Active | Active | Active | Active | Active | Active | Activity (Pontederia vaginalis [20]): Active; Activity (Echinochloa oryzicola [21]): Active; Activity (Ammannia multiflora [22]): Active; Activity (Elatine triandra [23]): Active; Activity (Rotala indica [24]): Active |
| Cn1cc(C(=O)Nc2ccc(F)cc2Cl)c(Oc2cccc(C(F)(F)F)c2)n1 | Active | Active | Active | Active | Active | Non-toxic | Active | Active | Active | Active | Active | Active | Active | Active | Active | Active | Active | Active | Active | Active | Activity (Pontederia vaginalis [20]): Active; Activity (Echinochloa oryzicola [21]): Active; Activity (Ammannia multiflora [22]): Active; Activity (Elatine triandra [23]): Active; Activity (Rotala indica [24]): Active |
| Cn1cc(C(=O)Nc2ccc(F)cc2)c(Oc2cccc(C(F)(F)F)c2)n1 | Active | Active | Active | Active | Active | Non-toxic | Active | Active | Active | Active | inactive | Active | Active | Active | Active | Active | Active | Active | Active | Active | Activity (Pontederia vaginalis [20]): Active; Activity (Echinochloa oryzicola [21]): Active; Activity (Ammannia multiflora [22]): Active; Activity (Elatine triandra [23]): Active; Activity (Rotala indica [24]): Active |
| Cc1ccccc1NC(=O)c1cn(C)nc1Oc1cccc(C(F)(F)F)c1 | Active | Active | Active | Active | Active | Non-toxic | Active | Active | Active | Active | inactive | Active | Active | inactive | Active | Active | Active | Active | Active | Active | Activity (Pontederia vaginalis [20]): Active; Activity (Echinochloa oryzicola [21]): Active; Activity (Ammannia multiflora [22]): Active; Activity (Elatine triandra [23]): Active; Activity (Rotala indica [24]): Active |
| Cn1cc(C(=O)Nc2ccc(F)cc2F)c(Oc2ccc(Br)c(C(F)(F)F)c2)n1 | Active | Active | Active | Active | Active | Non-toxic | Active | Active | Active | Active | inactive | Active | Active | inactive | Active | Active | Active | Active | Active | Active | Activity (Pontederia vaginalis [20]): Active; Activity (Echinochloa oryzicola [21]): Active; Activity (Ammannia multiflora [22]): Active; Activity (Elatine triandra [23]): Active; Activity (Rotala indica [24]): Active |
| Cn1cc(C(=O)Nc2ccc(Cl)cc2F)c(Oc2cccc(C(F)(F)F)c2)n1 | Active | Active | Active | Active | Active | Non-toxic | Active | Active | Active | Active | inactive | Active | Active | inactive | Active | Active | Active | Active | Active | Active | Activity (Pontederia vaginalis [20]): Active; Activity (Echinochloa oryzicola [21]): Active; Activity (Ammannia multiflora [22]): Active; Activity (Elatine triandra [23]): Active; Activity (Rotala indica [24]): Active |
| O=C(Nc1ccc(F)cc1F)c1cn(CCF)nc1Oc1cccc(C(F)(F)F)c1 | Active | Active | Active | Active | Active | Non-toxic | inactive | inactive | inactive | inactive | inactive | inactive | inactive | inactive | Active | Active | Active | Active | Active | Active | Activity (Pontederia vaginalis [20]): Active; Activity (Echinochloa oryzicola [21]): Active; Activity (Ammannia multiflora [22]): Active; Activity (Elatine triandra [23]): Active; Activity (Rotala indica [24]): Active |
| Cn1cc(C(=O)Nc2ccccc2Cl)c(Oc2cccc(C(F)(F)F)c2)n1 | Active | Active | Active | Active | Active | Non-toxic | Active | Active | Active | Active | Active | Active | Active | Active | Active | Active | Active | Active | Active | Active | Activity (Pontederia vaginalis [20]): Active; Activity (Echinochloa oryzicola [21]): Active; Activity (Ammannia multiflora [22]): Active; Activity (Elatine triandra [23]): Active; Activity (Rotala indica [24]): Active |
| Cn1cc(C(=O)Nc2cccc(F)c2F)c(Oc2cccc(C(F)(F)F)c2)n1 | Active | Active | Active | Active | Active | Non-toxic | Active | Active | Active | Active | inactive | Active | Active | inactive | Active | Active | Active | Active | Active | Active | Activity (Pontederia vaginalis [20]): Active; Activity (Echinochloa oryzicola [21]): Active; Activity (Ammannia multiflora [22]): Active; Activity (Elatine triandra [23]): Active; Activity (Rotala indica [24]): Active |
